Measured values from patent US11518758B2, “Heteroarylaminopyrimidine amide autophagy inhibitors and methods of use thereof” (Deciphera Pharmaceuticals, LLC, priority 2019, dated 2022).

Legend:
[1] = target: T1, ULK2 kinase (Homo sapiens, UniProt Q8IYT8); assay: Biochemical assay for ULK2 (coupled pyruvate kinase/lactate dehydrogenase assay); conditions: 9.7 nM ULK2 (Eurofins), myelin basic protein, 1 mM ATP; read-out: ULK2.2
T1 construct: purchased Eurofins 14-772
Experimental: Example 176. Biochemical Assay for ULK2
Activity of ULK2 kinase was determined spectroscopically using a coupled pyruvate kinase/lactate dehydrogenase assay that continuously monitors the ATP hydrolysis-dependent oxidation of NADH (e.g., Schindler et al. Science (2000) 289: 1938-1942). Assays were conducted in 384-well plates (100 uL final volume) using 9.7 nM ULK2 (Eurofins CAT #14-772), 0.25 mg/mL myelin basic protein, 1.5 units pyruvate kinase, 2.1 units lactate dehydrogenase, 1 mM phosphoenol pyruvate, 0.28 mM NADH and 1 mM ATP in assay buffer (100 mM Tris, pH 7.5, 15 mM MgCl2, 0.5 mM DTT, 0.1% octyl-glucoside, 0.002% (w/v) BSA, and 0.002% Triton X-100). Inhibition of ULK2 was measured by adding serial diluted test compound (final assay concentration of 1% DMSO). A decrease in absorption at 340 nm was monitored continuously for 6 hours at 30° C. on a multi-mode microplate reader (BioTek). The reaction rate was calculated using the 2-3 h time frame. The reaction rate at each concentration of compound was converted to percent inhibition using controls (i.e. reaction with no test compound and reaction with a known inhibitor) and IC50 values were calculated by fitting a four-parameter sigmoidal curve to the data using Prism (GraphPad software).

[2] = target: T2, ULK1 kinase (Homo sapiens, UniProt O75385); assay: Biochemical assay for ULK1.2 (coupled pyruvate kinase/lactate dehydrogenase assay); conditions: 19 nM ULK1 (Eurofins), myelin basic protein, 1 mM ATP
T2 construct: purchased Eurofins 14-959
T2 sequence (O75385 with tags, fused parts or gaps): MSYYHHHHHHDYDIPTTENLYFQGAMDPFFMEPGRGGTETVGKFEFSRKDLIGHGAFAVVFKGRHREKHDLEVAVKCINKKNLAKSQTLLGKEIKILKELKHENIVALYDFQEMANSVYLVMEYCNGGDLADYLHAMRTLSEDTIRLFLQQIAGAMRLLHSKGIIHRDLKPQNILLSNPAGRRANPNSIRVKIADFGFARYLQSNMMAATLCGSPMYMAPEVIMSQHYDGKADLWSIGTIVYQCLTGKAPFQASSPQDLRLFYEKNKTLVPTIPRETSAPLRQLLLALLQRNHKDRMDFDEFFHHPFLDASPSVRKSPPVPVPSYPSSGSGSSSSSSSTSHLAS
In short: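 NADH-coupled PK/LDH read-out at 340 nm, run with 19 nM ULK1, 0.25 mg/mL myelin basic protein and 1 mM ATP. Buffer was 100 mM Tris pH 7.5 with 15 mM MgCl2 and 1% DMSO final. Monitoring was continuous for 6 hours at 30° C; rates from the 2-3 h window were converted to percent inhibition and fitted to a four-parameter curve for IC50.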

[3] = test system: phospho-Serine 318 ATG13 (pATG13), ULK kinase substrate, in A549 (KRAS mutant) cells; assay: pATG13 levels of mutant KRas A549 cells after treatment with ULK inhibitors in combination with trametinib (ELISA); type: cell-based, human; conditions: with 250 nM trametinib
In short: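 A549 cells grown overnight were treated overnight at 37 °C with a dose response of test compound plus 250 nM trametinib (final) or DMSO. Lysates were assayed by sandwich ELISA, with total ATG13 capture and biotinylated pS318-ATG13 detection read at 450 nm minus 540 nm, giving % phosphorylation against control and IC50.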

[4] = test system: phospho-Serine 318 ATG13 (pATG13) in HCT-116 cells; assay: pATG13 levels of mutant KRas HCT-116 cells after treatment with ULK inhibitors in combination with trametinib (ELISA); type: cell-based, human
Experimental: Example 179. pATG13 Levels of Mutant KRas HCT-116 Cells after Treatment with ULK Inhibitors in Combination with Trametinib
(§1) HCT-116 human colon cancer cells (10000 cells/well) were added to a 384-well tissue-culture treated plate in 50 μL of pre-warmed DMEM medium supplemented with 10% characterized fetal bovine serum (Invitrogen, Carlsbad, Calif.), 100 units/mL penicillin G, and 100 μg/mL streptomycin and allowed to grow overnight at 37° C., 5% CO2, and 95% humidity. The following day, 10 μL of media containing trametinib or DMSO as a control was added to wells. The final concentration of trametinib in wells was 250 nM. A dose response of a test compound (0.6 μL per well) was added. DMSO (0.6 μL) was added to control wells. The plate was briefly shaken to mix wells and then incubated at 37° C. overnight. The next day, the media was aspirated and cells were washed with Dulbecco's Phosphate Buffered Saline (Gibco). Cells were lysed using MPER lysis buffer (Pierce, Rockford, Ill.) containing Halt Phosphatase and Protease Inhibitors (Pierce, Rockford, Ill.) and Phosphatase inhibitor cocktail 2 (Sigma, St. Louis, Mo.) at 4° C. for 10 minutes with shaking.
(§2) Cellular levels of phospho-Serine 318 ATG13 (pATG13) were measured via an ELISA method. Total ATG13 Antibody (Cell Signaling Cat #13273) was used to coat the wells. The plate was incubated at 4° C. overnight and washed with ELISA wash buffer (Biolegend Cat #421601). The wells were then blocked with assay diluent (Biolegend Cat #421203) for 1 hour at room temperature. Plate wells were washed with ELISA wash buffer. Cell lysate was added to wells and incubated at room temperature for 2 hours. Plate wells were washed with ELISA wash buffer. Biotinylated pS318-ATG13 antibody (Rockland Immunochemicals Cat #600-401-C49) was diluted in assay diluent and added to each well and incubated at room temperature for 1 hour. Plate wells were washed with ELISA wash buffer. Streptavidin linked to horseradish peroxidase (Thermo Fisher Cat #21140) was diluted in assay diluent and added to each well and incubated at room temperature for 1 hour. Plate wells were washed with ELISA wash buffer. High sensitivity TMB substrate (Biolegend Cat #421101) was added to each well and incubated at room temperature for 20 minutes. The reaction was stopped with 2N Sulfuric Acid. The plate was analyzed at on a plate reader measuring absorbance at 450 nm and 540 nm (background). Signal was calculated by first subtracting the background absorbance at 540 nm from the absorbance at 450 nm for each well. Next, the background corrected absorbance at 450 nm from blank wells was subtracted from test wells. Data was compared to control wells to determine % ATG13 phosphorylation. GraphPad Prism was used to calculate IC50 values.

[5] = test system: phospho-Serine 318 ATG13 (pATG13) in MiaPaCa-2 cells; assay: pATG13 levels of mutant KRas MiaPaCa-2 cells after treatment with ULK inhibitors in combination with trametinib (ELISA); type: cell-based, human
Experimental: Example 178. pATG13 Levels of Mutant KRas MiaPaCa-2 Cells after Treatment with ULK Inhibitors in Combination with Trametinib
as §1, with “MiaPaCa-2” for “HCT-116”, “pancreatic” for “colon”, “G,” for “G, and”, “streptomycin, and 2.5% Horse Serum” for “streptomycin”
as §2

[6] = target: T3, ULK1 kinase (Homo sapiens, UniProt O75385, E37A/K38A); assay: Biochemical assay for ULK1.3 (coupled pyruvate kinase/lactate dehydrogenase assay); conditions: 0.1 nM ULK1 (from Beryllium), peptide substrate, 1 mM ATP
T3 construct: (residues 1-283; ID NO: 2); purchased Beryllium
T3 sequence (O75385 1-283 E37A/K38A): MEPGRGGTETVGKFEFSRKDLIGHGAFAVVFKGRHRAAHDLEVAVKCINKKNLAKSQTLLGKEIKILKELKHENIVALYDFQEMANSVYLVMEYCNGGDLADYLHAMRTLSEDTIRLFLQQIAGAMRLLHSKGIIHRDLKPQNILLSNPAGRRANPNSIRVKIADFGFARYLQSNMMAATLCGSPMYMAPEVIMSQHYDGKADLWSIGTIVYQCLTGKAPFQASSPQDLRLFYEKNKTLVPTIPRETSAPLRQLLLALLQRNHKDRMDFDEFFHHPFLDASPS
Experimental: Example 175. Biochemical Assay for ULK1.3
Activity of ULK1 kinase was determined spectroscopically using a coupled pyruvate kinase/lactate dehydrogenase assay that continuously monitors the ATP hydrolysis-dependent oxidation of NADH (e.g., Schindler et al. Science (2000) 289: 1938-1942). Assays were conducted in 384-well plates (100 uL final volume) using 0.1 nM ULK1 (from Beryllium), 0.075 mM peptide substrate (YANWLAASIYLDGKKK (SEQ ID NO: 5)), 1.5 units pyruvate kinase, 2.1 units lactate dehydrogenase, 1 mM phosphoenol pyruvate, 0.28 mM NADH and 1 mM ATP in assay buffer (100 mM Tris, pH 7.5, 15 mM MgCl2, 0.5 mM DTT, 0.004% (w/v) BSA, and 0.004% Triton X-100). Inhibition of ULK1 was measured by adding serial diluted test compound (final assay concentration of 1% DMSO). A decrease in absorption at 340 nm was monitored continuously for 6 hours at 30° C. on a multi-mode microplate reader (BioTek). The reaction rate was calculated using the 2-3 h time frame. The reaction rate at each concentration of compound was converted to percent inhibition using controls (i.e. reaction with no test compound and reaction with a known inhibitor) and IC50 values were calculated using software routines in Prism (GraphPad software).

[7] = target: T4, LRRK2 kinase (Homo sapiens, UniProt Q5S007); assay: Biochemical assay for LRRK2 (coupled pyruvate kinase/lactate dehydrogenase assay); conditions: 26.4 nM LRRK2 (residues 970-2528), 0.1 mM peptide substrate, 1 mM ATP
T4 construct: purchased Thermo Fisher
T4 sequence (Q5S007 with tags, fused parts or gaps): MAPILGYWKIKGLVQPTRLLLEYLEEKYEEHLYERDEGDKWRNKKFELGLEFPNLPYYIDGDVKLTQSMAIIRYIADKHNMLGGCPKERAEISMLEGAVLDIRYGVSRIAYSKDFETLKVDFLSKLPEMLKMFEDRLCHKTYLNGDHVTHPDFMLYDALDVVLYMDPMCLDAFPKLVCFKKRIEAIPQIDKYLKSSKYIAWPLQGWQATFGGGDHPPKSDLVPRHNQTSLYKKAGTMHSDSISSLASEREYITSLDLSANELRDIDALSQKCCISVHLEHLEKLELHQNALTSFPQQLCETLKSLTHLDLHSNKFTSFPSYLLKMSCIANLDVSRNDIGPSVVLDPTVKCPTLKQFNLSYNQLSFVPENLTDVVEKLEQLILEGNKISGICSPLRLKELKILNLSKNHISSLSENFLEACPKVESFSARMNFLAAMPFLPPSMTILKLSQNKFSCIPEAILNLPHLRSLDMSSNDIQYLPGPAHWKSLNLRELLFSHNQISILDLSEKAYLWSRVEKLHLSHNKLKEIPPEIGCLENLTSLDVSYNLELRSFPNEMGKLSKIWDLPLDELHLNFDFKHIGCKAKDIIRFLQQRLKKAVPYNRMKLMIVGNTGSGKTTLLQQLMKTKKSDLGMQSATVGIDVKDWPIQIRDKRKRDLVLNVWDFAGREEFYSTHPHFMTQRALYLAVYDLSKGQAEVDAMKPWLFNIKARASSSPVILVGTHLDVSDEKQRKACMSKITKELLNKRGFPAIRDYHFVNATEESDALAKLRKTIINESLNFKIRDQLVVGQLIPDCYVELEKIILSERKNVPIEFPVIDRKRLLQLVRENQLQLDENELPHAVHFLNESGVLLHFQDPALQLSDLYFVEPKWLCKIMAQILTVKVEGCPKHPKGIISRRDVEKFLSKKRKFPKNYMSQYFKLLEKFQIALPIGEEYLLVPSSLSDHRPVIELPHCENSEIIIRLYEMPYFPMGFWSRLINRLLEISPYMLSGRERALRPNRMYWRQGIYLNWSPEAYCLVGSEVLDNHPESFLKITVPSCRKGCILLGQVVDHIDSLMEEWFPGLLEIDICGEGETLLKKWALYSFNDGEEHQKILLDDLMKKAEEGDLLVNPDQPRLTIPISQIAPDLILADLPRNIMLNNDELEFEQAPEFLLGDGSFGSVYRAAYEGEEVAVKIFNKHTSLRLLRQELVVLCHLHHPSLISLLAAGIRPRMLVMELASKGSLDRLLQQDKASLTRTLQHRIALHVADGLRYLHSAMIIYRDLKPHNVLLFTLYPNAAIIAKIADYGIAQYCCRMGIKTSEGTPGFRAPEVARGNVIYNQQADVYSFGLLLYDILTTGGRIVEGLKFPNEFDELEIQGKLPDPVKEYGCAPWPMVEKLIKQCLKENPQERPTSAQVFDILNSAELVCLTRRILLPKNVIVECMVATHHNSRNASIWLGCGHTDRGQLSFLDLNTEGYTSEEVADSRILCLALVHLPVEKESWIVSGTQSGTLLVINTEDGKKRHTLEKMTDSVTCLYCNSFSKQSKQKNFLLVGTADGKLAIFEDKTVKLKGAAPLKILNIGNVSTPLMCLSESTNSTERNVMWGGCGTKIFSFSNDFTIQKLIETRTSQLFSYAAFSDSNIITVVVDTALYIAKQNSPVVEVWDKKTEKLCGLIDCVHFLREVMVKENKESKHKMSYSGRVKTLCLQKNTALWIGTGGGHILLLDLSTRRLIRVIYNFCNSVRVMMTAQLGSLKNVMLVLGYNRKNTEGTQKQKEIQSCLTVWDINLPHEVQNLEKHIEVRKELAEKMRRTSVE

T1 sequence (Q8IYT8 with tags, fused parts or gaps): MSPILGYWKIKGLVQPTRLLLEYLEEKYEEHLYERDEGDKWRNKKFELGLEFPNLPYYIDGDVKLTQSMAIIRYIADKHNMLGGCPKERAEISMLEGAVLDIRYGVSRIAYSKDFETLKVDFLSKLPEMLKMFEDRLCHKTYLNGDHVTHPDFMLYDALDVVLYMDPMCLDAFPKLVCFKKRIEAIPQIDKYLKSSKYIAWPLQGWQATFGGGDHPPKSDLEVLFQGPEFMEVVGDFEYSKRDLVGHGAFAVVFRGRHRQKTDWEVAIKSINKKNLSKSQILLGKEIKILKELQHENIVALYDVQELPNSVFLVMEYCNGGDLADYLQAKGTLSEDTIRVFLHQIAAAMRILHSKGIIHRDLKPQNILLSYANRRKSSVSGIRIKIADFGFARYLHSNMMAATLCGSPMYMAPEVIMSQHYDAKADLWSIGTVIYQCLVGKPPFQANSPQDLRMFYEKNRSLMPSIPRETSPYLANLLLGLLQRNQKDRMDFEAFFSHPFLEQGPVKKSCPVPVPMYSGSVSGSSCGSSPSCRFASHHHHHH

SMILES | IC50 [1] [nM] | IC50 [2] [nM] | IC50 [3] [nM] | IC50 [4] [nM] | IC50 [5] [nM] | IC50 [6] [nM] | IC50 [7] [nM]
O=C1CCCCN1CCCNc1nc(Nc2cnn(C3CCNCC3)c2)ncc1C(F)(F)F [Example 7] | 1 to 25 | 1 to 25 | 10 to 100 | 100 to 300 |  |  | 
Cc1nn(C2CCNCC2)cc1Nc1ncc(C(F)(F)F)c(NCCCN2CCCCC2=O)n1 [Example 14] | 1 to 25 | 1 to 25 | 300 to 600 | 10 to 100 |  |  | 
CCN1CCC(n2cc(Nc3cc(NCCCN4CCCCC4=O)c(C(F)(F)F)cn3)cn2)CC1 [Example 16] | 100 to 500 | 25 to 100 | 100 to 300 |  | 10 to 100 |  | 
CCc1nn(C2CCNCC2)cc1Nc1ncc(C(F)(F)F)c(NCCCN2CCCCC2=O)n1 [Example 40] |  | 1 to 25 | 300 to 600 | 10 to 100 | 10 to 100 |  | 
Cc1nn([C@@H]2CCN(C)C2)cc1Nc1ncc(Br)c(NCCCN2CCCCC2=O)n1 [Example 44] | 100 to 500 | 25 to 100 | 100 to 300 |  | 100 to 300 |  | 
CCc1nn(C2CCN(CC)CC2)cc1Nc1ncc(Br)c(NCCCN2CCCCC2=O)n1 [Example 54] |  | 25 to 100 | 100 to 300 |  | 100 to 300 |  | 
Cc1nn([C@@H]2CCNC2)cc1Nc1ncc(Br)c(NCCCN2CCCCC2=O)n1 [Example 60] | 100 to 500 | 25 to 100 | > 600 |  | 10 to 100 |  | 
CCN1CC[C@H](n2cc(Nc3ncc(C(F)(F)F)c(NCCCN4CCCCC4=O)n3)c(C)n2)C1 [Example 66] | 100 to 500 | 25 to 100 | 100 to 300 |  | 100 to 300 |  | 
Cc1nn(C2CCN(C(C)C)CC2)cc1Nc1ncc(Br)c(NCCCN2CCCOC2=O)n1 [Example 71] |  |  | > 600 |  | 100 to 300 | 25 to 100 | 
Cc1nn(C2CCN(C(C)C)CC2)cc1Nc1ncc(Cl)c(NCCCN2CCCOC2=O)n1 [Example 72] |  |  | > 600 |  | 100 to 300 | 25 to 100 | 
O=C1CCCCCN1CCCNc1nc(Nc2cnn(CCN3CCOCC3)c2)ncc1C(F)(F)F [Example 96] |  | 25 to 100 | 300 to 600 |  | 100 to 300 |  | 
Cc1nn(CCCN2CCCC2)cc1Nc1ncc(C(F)(F)F)c(NCCCN2CCCCCC2=O)n1 [Example 99] | 100 to 500 | 1 to 25 | 100 to 300 |  | 10 to 100 |  | 
Cc1nn(C2CCN(C)C2)cc1Nc1ncc(Br)c(NCCCN2CCCOCC2=O)n1 (stereo not shown) [Example 118] |  |  | 300 to 600 |  | 100 to 300 | 25 to 100 | 1 to 100
Cc1nn(CCCN2CCOCC2)cc1Nc1ncc(C(F)(F)F)c(NCCCN2CCOCCC2=O)n1 [Example 129] | > 500 | 100 to 500 | > 600 |  | > 600 |  | 
Cc1nn([C@@H]2CCN(C)C2)cc1Nc1ncc(C(F)(F)F)c(NCCCN2CCOCCC2=O)n1 [Example 133] |  | 1 to 25 | 10 to 100 |  | 10 to 100 |  | 
Cc1nn([C@@H]2CCN(C)C2)cc1Nc1ncc(Br)c(NCCCN2CCOCCC2=O)n1 [Example 138] |  |  | 300 to 600 |  | 100 to 300 | 25 to 100 | 
CN1CCC(n2ccc(Nc3cc(NCCCN4CCCCC4=O)c(C(F)(F)F)cn3)n2)CC1 [Example 173] |  |  | 10 to 100 |  | 10 to 100 | 1 to 25 | 
